Laboratory results from ChEMBL document CHEMBL1136523, “A novel estrogen receptor ligand template” (Bioorg Med Chem Lett, 2003).

How the values were obtained:
Estrogen receptor [1] = target: T1, Estrogen receptor (Homo sapiens, UniProt P03372); test: In vitro binding affinity for estrogen receptor alpha
T1 sequence (P03372 whole entry): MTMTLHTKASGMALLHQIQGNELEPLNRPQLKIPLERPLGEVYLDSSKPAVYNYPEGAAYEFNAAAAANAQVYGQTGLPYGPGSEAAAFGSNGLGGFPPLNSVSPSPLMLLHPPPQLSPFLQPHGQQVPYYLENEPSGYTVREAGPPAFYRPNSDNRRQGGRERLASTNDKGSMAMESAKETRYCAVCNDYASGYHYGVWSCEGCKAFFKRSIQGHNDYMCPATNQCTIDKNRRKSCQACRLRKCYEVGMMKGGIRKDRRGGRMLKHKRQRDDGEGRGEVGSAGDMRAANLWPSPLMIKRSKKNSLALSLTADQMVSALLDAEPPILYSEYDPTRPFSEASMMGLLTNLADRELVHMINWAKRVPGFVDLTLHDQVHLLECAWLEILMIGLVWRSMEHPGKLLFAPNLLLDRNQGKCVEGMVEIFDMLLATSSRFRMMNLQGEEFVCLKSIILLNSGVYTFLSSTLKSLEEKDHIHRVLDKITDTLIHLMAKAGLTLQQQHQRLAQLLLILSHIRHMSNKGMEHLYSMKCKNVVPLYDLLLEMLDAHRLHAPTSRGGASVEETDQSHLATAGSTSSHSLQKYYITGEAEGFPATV

Estrogen receptor [2] = target: Estrogen receptor (Homo sapiens, UniProt Q92731+P03372); test: Percent agonistic activity for estrogen-induced pS2 expression in MCF-7 cells; assay type: functional, cell-based; details: mcf7
Estrogen receptor beta = Estrogen receptor beta (Homo sapiens, UniProt Q92731)
Chain of Estrogen receptor beta (Q92731 whole entry): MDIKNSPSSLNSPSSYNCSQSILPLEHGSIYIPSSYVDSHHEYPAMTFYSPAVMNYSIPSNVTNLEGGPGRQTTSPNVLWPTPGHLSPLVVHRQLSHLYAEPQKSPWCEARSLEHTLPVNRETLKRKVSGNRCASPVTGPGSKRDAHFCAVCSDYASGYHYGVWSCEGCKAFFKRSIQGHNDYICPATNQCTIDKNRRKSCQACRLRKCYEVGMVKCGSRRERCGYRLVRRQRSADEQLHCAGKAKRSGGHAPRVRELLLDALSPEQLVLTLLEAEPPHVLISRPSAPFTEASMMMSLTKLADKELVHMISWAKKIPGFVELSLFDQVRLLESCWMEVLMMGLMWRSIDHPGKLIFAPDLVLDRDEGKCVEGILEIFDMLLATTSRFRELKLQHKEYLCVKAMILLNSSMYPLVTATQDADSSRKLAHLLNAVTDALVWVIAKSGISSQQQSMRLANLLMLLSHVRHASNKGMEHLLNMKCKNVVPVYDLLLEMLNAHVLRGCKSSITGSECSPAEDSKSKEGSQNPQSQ
Description: In vitro binding affinity for estrogen receptor beta

## OC[C@@]12CC=C[C@@H](C1)[C@H](c1ccc(O)cc1)CC2
Estrogen receptor [1]
  IC50: 550 nM
Estrogen receptor [2]
  EC50: < 10 nM
Estrogen receptor beta
  IC50: 75 nM
